Assays:
K2 = test: apoptotic fraction of cells (caspase-3 NucView488 positive); higher = more apoptosis
Description: (§1)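 BRAF V600E/D melanoma cell lines were seeded in 96-well plates, treated in 4 replicates with seven doses (3.16 nM to 3.16 uM) of RAF/MEK inhibitors for 24, 48 or 72 h, and stained with Hoechst 33342 (nuclei) and DEVD-NucView488 caspase-3 substrate. Plates were imaged on an Operetta. Relative viability is the cell count normalised to a DMSO-treated control; apoptosis fraction is the fraction of NucView488-positive nuclei.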

COLO858 [1] = test: as above
Description: as §1

WM1552C = test: as above
Description: as §1

MZ7MEL = test: as above
Description: as §1

WM115 = test: as above
Description: as §1

COLO858 [2] = test: relative viability (cell count relative to DMSO-treated control) (fraction of DMSO control); higher = more viable cells / less drug effect
Description: as §1

C32 = test: as above
Description: as §1

CN(C)CCOc1ccc(-c2nc(-c3ccncc3)c(-c3ccc4c(c3)CC/C4=N\O)[nH]2)cc1
Conditions | apoptotic fraction of cells, COLO858 [1] | apoptotic fraction of cells, K2 | apoptotic fraction of cells, MZ7MEL | apoptotic fraction of cells, WM115 | apoptotic fraction of cells, WM1552C | relative viability, C32 | relative viability, COLO858 [2]
24 h, 0.00316 µM | 0.0451 | 0.00595 | 0.0126 | 0.0434 | 0.059 | 1.07 | 0.866
24 h, 0.01 µM | 0.0421 | 0.00244 | 0.0117 | 0.0337 | 0.05804 | 1.05 | 1.21
24 h, 0.0316 µM | 0.0423 | 0.00221 | 0.0102 | 0.0512 | 0.0561 | 1.09 | 1.2
24 h, 0.1 µM | 0.0572 | 0.00264 | 0.0118 | 0.0473 | 0.0693 | 1.05 | 1
24 h, 0.316 µM | 0.0792 | 0.0035 | 0.0151 | 0.0461 | 0.0643 | 0.971 | 0.946
24 h, 1 µM | 0.123 | 0.0129 | 0.0236 | 0.0874 | 0.0626 | 0.842 | 0.883
24 h, 3.16 µM | 0.13 | 0.0372 | 0.0357 | 0.0958 | 0.0608 | 0.779 | 0.811
48 h, 0.00316 µM | 0.0512 | 0.00193 | 0.0138 | 0.047 | 0.075 | 1.2 | 0.963
48 h, 0.01 µM | 0.0508 | 0.00284 | 0.019 | 0.0376 | 0.0725 | 1.04 | 1.03
48 h, 0.0316 µM | 0.0484 | 0.00174 | 0.0145 | 0.0402 | 0.0713 | 1.03 | 0.929
48 h, 0.1 µM | 0.0742 | 0.00423 | 0.0141 | 0.0491 | 0.067 | 1.06 | 0.584
48 h, 0.316 µM | 0.153 | 0.00888 | 0.0253 | 0.0688 | 0.0576 | 0.858 | 0.431
48 h, 1 µM | 0.237 | 0.0309 | 0.0408 | 0.101 | 0.0631 | 0.551 | 0.341
48 h, 3.16 µM | 0.341 | 0.0801 | 0.0727 | 0.131 | 0.0655 | 0.4 | 0.277
72 h, 0.00316 µM | 0.0855 | – | 0.017 | 0.0298 | 0.0862 | 1.1 | 1.07
72 h, 0.01 µM | 0.0692 | – | 0.0127 | 0.031 | 0.0741 | 1.19 | 1.21
72 h, 0.0316 µM | 0.0676 | – | 0.0173 | 0.0346 | 0.0679 | 1.08 | 0.906
72 h, 0.1 µM | 0.077 | – | 0.0271 | 0.0452 | 0.0654 | 0.762 | 0.605
72 h, 0.316 µM | 0.141 | – | 0.0568 | 0.0689 | 0.0685 | 0.436 | 0.494
72 h, 1 µM | 0.268 | – | 0.0967 | 0.144 | 0.0776 | 0.276 | 0.381
72 h, 3.16 µM | 0.424 | – | 0.143 | 0.158 | 0.113 | 0.209 | 0.29

From the supplement of paper PMC4380931
